Experimental data: patent US20140023611A1 (priority 2010, published 2014)

Columns and labels:
rat NaP2b (SLC34A2) [1] = target: T1, rat NaP2b (SLC34A2) (Rattus norvegicus, UniProt Q9JJ09); assay: Inhibition of NaP2b-mediated Pi (33P) uptake in transfected HEK293 cells, rat NaP2b; format: cell-based; details: 33P Pi uptake, 0.1 mM phosphate, value given as pIC50 range
T1 construct: host or cells: HEK293
T1 sequence (Q9JJ09 1-695): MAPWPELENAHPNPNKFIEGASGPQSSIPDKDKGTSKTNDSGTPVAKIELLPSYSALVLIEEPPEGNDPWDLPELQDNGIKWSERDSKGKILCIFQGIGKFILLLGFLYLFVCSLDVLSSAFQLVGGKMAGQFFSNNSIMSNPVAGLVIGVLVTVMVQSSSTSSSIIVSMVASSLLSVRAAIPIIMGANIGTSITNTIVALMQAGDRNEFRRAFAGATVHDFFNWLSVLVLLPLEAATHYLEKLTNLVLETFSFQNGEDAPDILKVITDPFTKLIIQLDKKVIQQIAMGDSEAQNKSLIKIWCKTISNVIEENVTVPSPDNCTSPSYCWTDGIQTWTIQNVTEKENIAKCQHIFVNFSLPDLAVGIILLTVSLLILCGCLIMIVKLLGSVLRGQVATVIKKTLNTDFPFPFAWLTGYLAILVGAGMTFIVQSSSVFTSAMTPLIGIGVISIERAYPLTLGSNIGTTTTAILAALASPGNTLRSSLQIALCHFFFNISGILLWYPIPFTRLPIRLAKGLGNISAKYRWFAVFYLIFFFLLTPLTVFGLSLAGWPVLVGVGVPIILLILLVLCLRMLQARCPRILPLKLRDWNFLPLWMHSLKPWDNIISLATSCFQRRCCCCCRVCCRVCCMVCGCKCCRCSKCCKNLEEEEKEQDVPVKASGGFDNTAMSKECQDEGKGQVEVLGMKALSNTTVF
In short: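 The cells transiently expressed NaP2b after Lipofectamine transfection. Each compound was run in duplicate over twelve concentrations, 0.1 nM–30 uM.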

[2] = system: Uptake of Phosphorus from the Intestine; assay: In vivo bolus phosphorus challenge; parameters: species or system rat; details: Sprague-Dawley rats on low-phosphorus diet; oral Drug Dose 30, 15 min before phosphate bolus; serum 30 min post bolus
Experimental: By pretreating animals with a low phosphorus diet followed by the subsequent dosing of a phosphorus bolus, serum phosphorus levels were monitored after 30 minutes as a surrogate for intestinal phosphorus absorption. […] The in vivo bolus phosphorus challenge model used here mimics this model in rats.
Male, 7-week-old Sprague-Dawley rats (Charles-River laboratories international, Hollister, Calif.) were allowed to acclimatize for a minimum of 3 days before switching to a synthetic low-phosphorus diet (TD.85010, Harlan Teklad, Madison, Wis.) which contains 0.1% phosphorus and 0.6% calcium. At day 5, testing compounds or vehicle alone (as indicated) were orally administered at the indicated dose in a volume of 5 ml/kg, followed by a bolus gavage of monobasic sodium phosphate (1 mmol in 1 ml) 15 min after compound dosing. Serum was collected via retroorbital bleeding 30 min post phosphate bolus and phosphate levels were determined utilizing an ACE ALERA blood chemistry analyzer (Alfa Wassermann Diagnostic Technologies, West Caldwell, N.J.).
The extent of inhibition by test compounds on the elevation of serum phosphate levels in response to the bolus of phosphorus is shown in Table 12 (data are expressed as % Inhibition, with 6-10 animals per data point). The differences between groups were evaluated by one-way analysis of variance with Dunnett's post hoc tests.

[3] = Determination of compound Cmax and AUC after oral gavage (plasma LC-MS/MS); format: in vivo, Sprague-Dawley rats; details: Sprague-Dawley, rat, plasma, po, Structure (II) examples, Table 6, actual oral dose 7.6-11 mg/kg
In short: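 Plasma exposure measured by LC-MS/MS after acetonitrile precipitation with internal standard, quantified against a standard curve made in plasma. Compound given orally by gavage to Sprague-Dawley rats at nominal 2.5 or 10 mg/kg, with K2EDTA plasma sampled at 0.5, 1, 2 and 4 h.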

rat NaP2b (SLC34A2) [4] = target: T1, rat NaP2b (SLC34A2); assay: NaP2b-mediated Pi transport (33P uptake) in transfected HEK293 cells, rat NaP2b; format: cell-based; details: HEK293, 0.1 mM phosphate
In short: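 HEK293 cells transiently transfected with NaP2b cDNA, endogenous PiT transport suppressed; ^33P-phosphate uptake measured in sodium vs choline buffer (100 uM KH2PO4, pH 7.4) for 3–30 min at room temperature. Twelve concentrations, 0.1 nM–30 uM, in duplicate; uptake by scintillation counting, pIC50 calculated.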

human NaP2b (SLC34A2) = target: T2, human NaP2b (SLC34A2) (Homo sapiens, UniProt O95436); assay: NaP2b-mediated Pi transport (33P uptake) in transfected HEK293 cells, human NaP2b; format: cell-based; details: Structure (II) examples, Table 2; HEK293, 0.1 mM phosphate; read-out: pIC50 range for human Nap2b (converted)
T2 construct: host or cells: HEK293
T2 sequence (O95436 1-690): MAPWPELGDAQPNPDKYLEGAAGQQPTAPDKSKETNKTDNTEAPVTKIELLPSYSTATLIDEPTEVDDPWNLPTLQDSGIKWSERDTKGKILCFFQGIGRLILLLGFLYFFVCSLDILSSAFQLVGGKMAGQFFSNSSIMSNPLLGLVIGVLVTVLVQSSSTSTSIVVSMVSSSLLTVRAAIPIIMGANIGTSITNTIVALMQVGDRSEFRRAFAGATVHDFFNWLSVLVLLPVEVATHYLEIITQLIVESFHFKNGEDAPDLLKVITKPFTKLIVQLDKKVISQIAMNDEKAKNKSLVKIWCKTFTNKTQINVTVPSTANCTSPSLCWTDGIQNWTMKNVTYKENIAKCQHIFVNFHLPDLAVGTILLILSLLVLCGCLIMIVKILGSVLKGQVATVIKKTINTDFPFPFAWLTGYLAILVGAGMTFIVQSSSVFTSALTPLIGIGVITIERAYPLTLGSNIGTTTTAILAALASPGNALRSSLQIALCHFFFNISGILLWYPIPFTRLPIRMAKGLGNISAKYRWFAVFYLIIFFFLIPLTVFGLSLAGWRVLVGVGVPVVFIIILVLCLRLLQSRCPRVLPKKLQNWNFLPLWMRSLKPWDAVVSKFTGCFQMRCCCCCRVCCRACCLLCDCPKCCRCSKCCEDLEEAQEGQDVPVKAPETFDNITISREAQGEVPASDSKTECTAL
Experimental: HEK293 cells were obtained from the American Type Culture collection and propagated per their instructions. Expression clones for rat and human NaP2b (SLC34A2) were obtained from Open Biosystems (Catalog numbers MRN1768-9510282, and MHS1010-99823026, respectively). The sequence of the human protein was mutated to insert a threonine after residue 37, and to introduce a N39D mutation.
The rate of phosphate (Pi) uptake into HEK293 cells was measured using a modification of the method described by Mohrmann et al. (Mohrmann, I., Mohrmann, M., Biber, J., and Murer, H. (1986) Am. J. Phys. 250(3 Pt 1):G323-30.) Transfected HEK293 cells were treated with a pharmacological agent to minimize endogenous PiT-mediated phosphate transport activity, such that the only remaining sodium-dependent phosphate transport activity is that which was bestowed by introduction of the NaP2b genes.
Cells were seeded into 96-well plates at 25,000 cells/well and cultured overnight. […]
After incubation for 3-30 minutes at room temperature, assay mixtures were removed, and the cells were washed twice with ice cold stop solution (137 mM sodium chloride, 14 mM Tris, pH 7.4). Cells were lysed by addition of 20 μL 0.1% Tween 80 followed by 100 μL scintillation fluid, and counted using a TopCount (Perkin Elmer).
pIC50 (the negative log of the IC50) values of the test compounds were calculated using GraphPad Prism.

NaPi2b [5] = assay: Competition with phosphate: Pi uptake assay repeated at 2.1 vs 0.1 mM phosphate; format: cell-based; details: potency at 2.1 vs 0.1 mM phosphate
Description: For example, a phosphate uptake assay can be performed and the IC50 values for a compound at different phosphate concentrations can be determined (e.g., “Enzyme kinetics”, I. Segel, 1975, John-Wiley & Sons, p. 123). IC50 values for non-competitive inhibitors will remain the same or similar with respect to the phosphate concentration, whereas IC50 values for competitive inhibitors will increase (i.e lose potency) as phosphate concentration increases.
(§1) To ascertain if an inhibitor was competitive for binding with phosphate, the procedure was repeated, but raising the concentration of the substrate in the assay mixture from 0.1 to 2.1 mM phosphate.

NaPi2b [6] = target: T3, NaPi2b (Rattus norvegicus, UniProt Q9JJ09); assay: Competition with phosphate: Pi transport assay repeated at 2.1 vs 0.1 mM phosphate; format: cell-based; details: potency at 2.1 vs 0.1 mM phosphate
T3 construct: host or cells: HEK293
T3 sequence (Q9JJ09 1-695): T1 sequence (Q9JJ09 1-695)
Experimental: as §1

[7] = Structure (II) examples, Table 2
[8] = Structure (III) examples, Table 2
[9] = Structure (IV) examples, Table 1

In the case of `O=C(NCCN1CCOCC1)c1cccc(C(=O)Nc2ccc(N3CCCCC3)cc2-c2cc(C(=O)NCc3cccc(C(F)(F)F)c3)ccn2)c1` [Example 4.4, N1-(2-Morpholinoethyl)-N3-(4-(piperidin-1-yl)-2-(4-((3-(trifluoromethyl)benzyl)carbamoyl)pyridin-2-yl)phenyl)isophthalamide], the IC50 (rat NaP2b (SLC34A2) [1]) is reported as 10 to 31.6 µM and the “% Inhibition of Serum P elevation” value [2] is reported as 40-50%.

With `O=C(O)CCOCCOCCOCCNC(=O)c1cccc(C(=O)Nc2ccc(Cl)cc2C(=O)Nc2ccn(-c3cccc(C(F)(F)F)c3)n2)c1` [Example 25] the Cmax [3] was 3 ng/mL, the IC50 (rat NaP2b (SLC34A2) [4]; Structure (II) examples, Table 2, read-out: pIC50 range for rat Nap2b (converted)) was < 1 µM and the IC50 (human NaP2b (SLC34A2)) was < 1 µM.

In the case of `O=C(O)P(=O)(O)O` [PFA], the “pIC50 range for rat Nap2b” value (rat NaP2b (SLC34A2) [1]) is reported as 2-3, the “Competitive with respect to Pi?” value (NaPi2b [5]) is reported as “Yes” and the “pIC50 range for rat Nap2b” value (rat NaP2b (SLC34A2) [4]; [7]) is reported as 2-3. The “pIC50 range for rat Nap2b” value (rat NaP2b (SLC34A2) [4]; [8]) was 2-3, the “pIC50 range for rat Nap2b” value (rat NaP2b (SLC34A2) [4]; [9]) was 2-3 and the “Competitive with respect to Pi?” value (NaPi2b [6]; [7]) was “Yes”. For the same compound, the “Competitive with respect to Pi?” value (NaPi2b [6]; [8]) was “Yes” and the “Competitive with respect to Pi?” value (NaPi2b [6]; [9]) was “Yes”.
